Where “and” joins values, the source holds several entries; their conditions need not be identical. Equal entries are not always repeated. Entries after “also recorded” stand apart in the source; their conditions may differ. Where two headings read alike, the source gives them in different places.
Legend:
SH-SY5Y (F1174L) = conditions: did not occur until this dose
From the text: (§1) To verify cell line integrity, all lines were routinely genotyped (AmpFLSTR® Identifiler® kit; Applied Biosystems) and mycoplasma tested.

NB1643 (R1275Q) = conditions: NB1643, dose-dependent
From the text: as §1

NB1 (WT amplification) = conditions: NB1, dose-dependent
From the text: as §1

SY5Y cells [1] = test: Propidium iodide staining, cell cycle analysis, SY5Y; assay type: cell-based, human; conditions: 1000 nM crizotinib, 10 μg/ml antibody, or both, mean
SKNAS (WT) xenografts = conditions: 100 mg/kg/day oral gavage, 4 weeks
SY5Y cells [2] = test: Antibody-dependent cell-mediated cytotoxicity assay, SY5Y targets; assay type: cell-based, human; conditions: SY5Y pre-incubated 48 hours with crizotinib, then ALK antibody, mean
Method: The Cyto Tox 96 Non-Radioactive Cytotoxicity Assay (Promega) was used to assess antibody-dependent cell mediated cytotoxicity. […] Non-adherent peripheral blood lymphocytes were then replated in complete RPMI containing 1000 IU/ml rhIL-2 (Chiron) and incubated overnight. The following day, effector cells were collected and washed. Target NB1 or SY5Y cells that had been grown on T75 flasks until 70-80% confluency were also harvested and washed. […] Control wells were plated according to the manufacturer's specifications. After a 4-hour incubation at 37° C., cell viability was assessed by an enzymatic assay allowing for the quantification of lactate dehydrogenase which is released upon cell lysis. The % cytotoxicity was calculated as follows: [(Experimental−Effector Spontaneous−Target Spontaneous)/(Target Maximum−Target Spontaneous)]×100. […] Results shown are representative of three independent experiments, and quoted as mean±standard deviation.

NBSD (F1174L) xenografts = conditions: 100 mg/kg/day oral gavage, 4 weeks
NBEBc1 (WT) xenografts = conditions: 100 mg/kg/day oral gavage, 4 weeks
pSTAT3, pAKT, and pERK = test: In vitro phosphoprotein detection (immunoblot), downstream signaling; conditions: NB1 (wild type amplified)
neuroblastoma cell lines = test: In vitro growth inhibition (RT-CES), panel of neuroblastoma cell lines; assay type: cell-based, human; conditions: 333 nM, 72 hours; for Inhibition of growth, cell lines with ALK amplification or mutations: compared with normal copy number wild type ALK lines
From the text: A quantitative assay to evaluate growth inhibition in a multi-well was used in a parallel format to screen for cellular cytotoxicity. […] For FIG. 7, the biochemical consequences of ALK activation and downstream signaling pathways were studied in ALK-mutant lines.
as §1
It has been shown that mRNA knockdown of ALK in neuroblastoma cell lines with mutation or amplification is cytotoxic, and thus ALK inhibition might offer a tractable therapeutic target.

[3] = tested on: SHSY5Y (F1174L) xenografts; conditions: 100 mg/kg/day oral gavage, 4 weeks; end point tumor volume ≥1.5 cm^3 or treatment related death

For `C[C@@H](Oc1cc(-c2cnn(C3CCNCC3)c2)cnc1N)c1c(Cl)ccc(F)c1Cl` [PF-02341066, crizotinib], the “Dose at which inhibition of proliferation occurred” value (shortened to “Dose at which inhibition”) (SH-SY5Y (F1174L)) was 1000 nM, the “Dose at which inhibition” value (NB1643 (R1275Q)) was 33 to 100 nM and 33 nM and the “Dose at which inhibition” value (NB1 (WT amplification)) was 33 to 100 nM. The “sub G0 fraction” value (SY5Y cells [1]) was “increased the sub G0 fraction, but to a smaller extent than seen with dual treatment”, the “Prolongation of survival / days to reach tumor volume of 1.5 cm^3” value (SKNAS (WT) xenografts) was “non-significant difference in days to reach a tumor volume of 1.5 cm^3” and the “Prolongation of survival / days to reach tumor volume of 1.5 cm^3” value (SKNAS (WT) xenografts; listed as PF-2341066) was “neither a delay in tumor growth (P=0.87) or prolongation of survival”. For the same compound, the ADCC % cytotoxicity (SY5Y cells [2]; effector:target 25:1) was 33.7±2.5%, the ADCC % cytotoxicity (SY5Y cells [2]; effector:target 50:1) was 55.7±9.3% and the Prolongation of survival (NBSD (F1174L) xenografts) was 3.7 days. For the same compound, the Prolongation of survival (NBEBc1 (WT) xenografts) was 5.1 days, the “Abrogation of phosphorylation of STAT3, AKT and ERK” value (pSTAT3, pAKT, and pERK) was “substantial abrogation” and the “Inhibition of growth, cell lines with normal copy number WT ALK” value (neuroblastoma cell lines) was “No cell lines with normal copy number WT ALK showed significant inhibition”. For the same compound, the “Sensitivity of R1275Q cell lines compared with F1174L cell lines” value (neuroblastoma cell lines) was “more sensitive”, the “Inhibition of growth, cell lines with ALK amplification or mutations” value (neuroblastoma cell lines) was “significantly superior inhibition of growth” and the “Inhibition of growth, cell lines with ALK amplification or mutations” value (neuroblastoma cell lines; listed as PF2341066) was “sensitive; also recorded: significantly more sensitive”. The “Sensitivity of R1275Q cell lines compared with F1174L cell lines” value (neuroblastoma cell lines; listed as PF2341066) was “R1275Q mutations were more sensitive than F1174L mutations; also recorded: significantly more sensitive” and the Prolongation of survival [3] was 7.7 days.

From US10722578B2, “Methods and compositions for treating neuroblastoma” (The Children's Hospital of Philadelphia, priority 2008, dated 2020)
